Data as given in ChEMBL document CHEMBL1201862, “PubChem BioAssay data set” (2004).
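Test compounds were applied to cells in 96-well plates for 48 hours at 5 doses. Abbreviation: GI50, concentration required for 50% inhibition of growth.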 The source made the active and inactive calls. Rule as the data show it: active = GI50 up to about 1.1 µM and inactive = higher.

Columns and labels:
Assay in all cases: NCI anticancer screen, dose series, 48 h
SF-295 = tested on: SF-295
OVCAR-8 = tested on: OVCAR-8
A549 = tested on: A549
DU-145 = tested on: DU-145
NCI-H460 = tested on: NCI-H460
MDA-MB-435 = tested on: MDA-MB-435
BT-549 = tested on: BT-549
U-251 = tested on: U-251
RXF 393 = tested on: RXF 393
M14 = tested on: M14
SNB-19 = tested on: SNB-19
HOP-92 = tested on: HOP-92
NCI-H23 = tested on: NCI-H23
KM12 = tested on: KM12
NCI-H522 = tested on: NCI-H522
RPMI-8226 = tested on: RPMI-8226
MOLT-4 = tested on: MOLT-4
MDA-N = tested on: MDA-N
HCC 2998 = tested on: HCC 2998
UACC-62 = tested on: UACC-62
A498 = tested on: A498
SN12C = tested on: SN12C
TK-10 = tested on: TK-10
UACC-257 = tested on: UACC-257
HCT-116 = tested on: HCT-116
SK-MEL-5 = tested on: SK-MEL-5
ACHN = tested on: ACHN
NCI/ADR-RES = tested on: NCI/ADR-RES
LOX IMVI = tested on: LOX IMVI
CAKI-1 = tested on: CAKI-1
IGROV-1 = tested on: IGROV-1
Hs-578T = tested on: Hs-578T
MCF7 = tested on: MCF7
SK-MEL-28 = tested on: SK-MEL-28
HOP-62 = tested on: HOP-62
PC-3 = tested on: PC-3
OVCAR-4 = tested on: OVCAR-4
UO-31 = tested on: UO-31
EKVX = tested on: EKVX
Malme-3M = tested on: Malme-3M
T47D = tested on: T47D
SF-539 = tested on: SF-539
OVCAR-5 = tested on: OVCAR-5
HL-60 = tested on: HL-60
COLO 205 = tested on: COLO 205
SW-620 = tested on: SW-620
SK-OV-3 = tested on: SK-OV-3
K562 = tested on: K562
HT-29 = tested on: HT-29
SR = tested on: SR
OVCAR-3 = tested on: OVCAR-3
NCI-H226 = tested on: NCI-H226
SF-268 = tested on: SF-268
SK-MEL-2 = tested on: SK-MEL-2
SNB-75 = tested on: SNB-75
HCT-15 = tested on: HCT-15
MDA-MB-231 = tested on: MDA-MB-231
786-0 = tested on: 786-0
CCRF-CEM = tested on: CCRF-CEM

`CC1CC(C)CN(S(=O)(=O)c2cc(Cl)c(Oc3ccc([N+](=O)[O-])cc3Cl)c(Cl)c2)C1` (stereo not given) was tested, and the GI50 (SF-295) was > 100 µM (inactive), the GI50 (OVCAR-8) was > 100 µM (inactive) and the GI50 (A549) was > 100 µM (inactive). The GI50 (DU-145) was > 100 µM (inactive), the GI50 (NCI-H460) was > 100 µM (inactive) and the GI50 (MDA-MB-435) was > 100 µM (inactive). The GI50 (BT-549) was > 100 µM (inactive), the GI50 (U-251) was > 100 µM (inactive) and the GI50 (RXF 393) was > 100 µM (inactive). The GI50 (M14) was > 100 µM (inactive), the GI50 (SNB-19) was > 100 µM (inactive) and the GI50 (HOP-92) was > 100 µM (inactive). The GI50 (NCI-H23) was > 100 µM (inactive), the GI50 (KM12) was > 100 µM (inactive) and the GI50 (NCI-H522) was > 100 µM (inactive). For the same compound, the GI50 (RPMI-8226) was > 100 µM (inactive), the GI50 (MOLT-4) was > 100 µM (inactive) and the GI50 (MDA-N) was > 100 µM (inactive). The GI50 (HCC 2998) was > 100 µM (inactive), the GI50 (UACC-62) was > 100 µM (inactive) and the GI50 (A498) was > 100 µM (inactive). The GI50 (SN12C) was > 100 µM (inactive), the GI50 (TK-10) was > 100 µM (inactive) and the GI50 (UACC-257) was > 100 µM (inactive). The GI50 (HCT-116) was > 100 µM (inactive), the GI50 (SK-MEL-5) was > 100 µM (inactive) and the GI50 (ACHN) was > 100 µM (inactive). The GI50 (NCI/ADR-RES) was > 100 µM (inactive), the GI50 (LOX IMVI) was > 100 µM (inactive) and the GI50 (CAKI-1) was > 100 µM (inactive). For the same compound, the GI50 (IGROV-1) was > 100 µM (inactive), the GI50 (Hs-578T) was > 100 µM (inactive) and the GI50 (MCF7) was > 100 µM (inactive). For the same compound, the GI50 (SK-MEL-28) was > 100 µM (inactive), the GI50 (HOP-62) was > 100 µM (inactive) and the GI50 (PC-3) was > 100 µM (inactive). For the same compound, the GI50 (OVCAR-4) was > 100 µM (inactive), the GI50 (UO-31) was > 100 µM (inactive) and the GI50 (EKVX) was > 100 µM (inactive). The GI50 (Malme-3M) was > 100 µM (inactive), the GI50 (T47D) was > 100 µM (inactive) and the GI50 (SF-539) was > 100 µM (inactive). For the same compound, the GI50 (OVCAR-5) was > 100 µM (inactive), the GI50 (HL-60) was > 100 µM (inactive) and the GI50 (COLO 205) was > 100 µM (inactive). For the same compound, the GI50 (SW-620) was > 100 µM (inactive), the GI50 (SK-OV-3) was > 100 µM (inactive) and the GI50 (K562) was > 100 µM (inactive). The GI50 (HT-29) was > 100 µM (inactive), the GI50 (SR) was > 100 µM (inactive) and the GI50 (OVCAR-3) was > 100 µM (inactive). The GI50 (NCI-H226) was > 100 µM (inactive), the GI50 (SF-268) was > 100 µM (inactive) and the GI50 (SK-MEL-2) was > 100 µM (inactive). The GI50 (SNB-75) was > 100 µM (inactive), the GI50 (HCT-15) was > 100 µM and the GI50 (MDA-MB-231) was > 100 µM (inactive). The GI50 (786-0) was > 100 µM (inactive).

With `COc1ccc(C2=Nn3c(nc4sc(-c5ccccc5)cc4c3=O)SC2)cc1` the GI50 (SF-295) was > 100 µM (inactive), the GI50 (OVCAR-8) was > 100 µM (inactive) and the GI50 (A549) was > 100 µM (inactive). For the same compound, the GI50 (DU-145) was > 100 µM (inactive), the GI50 (NCI-H460) was 48.4 µM (inactive) and the GI50 (MDA-MB-435) was > 100 µM (inactive). For the same compound, the GI50 (BT-549) was > 100 µM (inactive), the GI50 (U-251) was > 100 µM (inactive) and the GI50 (RXF 393) was > 10 µM (inactive). The GI50 (HOP-92) was > 100 µM (inactive), the GI50 (NCI-H23) was > 100 µM (inactive) and the GI50 (KM12) was 81.1 µM (inactive). The GI50 (NCI-H522) was > 100 µM (inactive), the GI50 (RPMI-8226) was > 100 µM (inactive) and the GI50 (MOLT-4) was > 100 µM (inactive). The GI50 (MDA-N) was 81.8 µM (inactive), the GI50 (HCC 2998) was > 100 µM (inactive) and the GI50 (UACC-62) was > 100 µM (inactive). The GI50 (A498) was > 100 µM (inactive), the GI50 (SN12C) was > 100 µM (inactive) and the GI50 (TK-10) was > 100 µM (inactive). For the same compound, the GI50 (UACC-257) was > 100 µM (inactive), the GI50 (HCT-116) was 92.3 µM (inactive) and the GI50 (SK-MEL-5) was > 100 µM (inactive). The GI50 (ACHN) was 7.35 µM (inactive), the GI50 (NCI/ADR-RES) was > 100 µM (inactive) and the GI50 (LOX IMVI) was > 100 µM (inactive). The GI50 (CAKI-1) was > 100 µM (inactive), the GI50 (IGROV-1) was > 100 µM (inactive) and the GI50 (Hs-578T) was 34.4 µM (inactive). For the same compound, the GI50 (MCF7) was > 100 µM (inactive), the GI50 (SK-MEL-28) was > 100 µM (inactive) and the GI50 (HOP-62) was 54.8 µM (inactive). For the same compound, the GI50 (PC-3) was > 100 µM (inactive), the GI50 (UO-31) was > 100 µM (inactive) and the GI50 (EKVX) was > 100 µM (inactive). The GI50 (Malme-3M) was > 100 µM (inactive), the GI50 (T47D) was > 100 µM (inactive) and the GI50 (SF-539) was > 100 µM (inactive). For the same compound, the GI50 (OVCAR-5) was > 100 µM (inactive), the GI50 (HL-60) was > 100 µM (inactive) and the GI50 (COLO 205) was > 100 µM (inactive). The GI50 (CCRF-CEM) was > 100 µM (inactive), the GI50 (SW-620) was 37.3 µM (inactive) and the GI50 (SK-OV-3) was > 100 µM (inactive). The GI50 (K562) was > 10 µM (inactive), the GI50 (HT-29) was > 100 µM (inactive) and the GI50 (SR) was > 100 µM (inactive). For the same compound, the GI50 (OVCAR-3) was > 100 µM (inactive), the GI50 (NCI-H226) was > 100 µM (inactive) and the GI50 (SF-268) was > 100 µM (inactive). For the same compound, the GI50 (HCT-15) was > 100 µM, the GI50 (MDA-MB-231) was > 100 µM (inactive) and the GI50 (786-0) was 36.9 µM (inactive).

`C#CCn1ncc2c(SCc3ccccc3)ncnc21` was tested, and the GI50 (SF-295) was 53.5 µM (inactive), the GI50 (OVCAR-8) was > 100 µM (inactive) and the GI50 (A549) was > 100 µM (inactive). The GI50 (DU-145) was > 100 µM (inactive), the GI50 (NCI-H460) was > 100 µM (inactive) and the GI50 (MDA-MB-435) was 99.5 µM (inactive). For the same compound, the GI50 (BT-549) was > 100 µM (inactive), the GI50 (U-251) was > 100 µM (inactive) and the GI50 (RXF 393) was > 100 µM (inactive). For the same compound, the GI50 (M14) was 50.7 µM (inactive), the GI50 (SNB-19) was > 100 µM (inactive) and the GI50 (HOP-92) was > 100 µM (inactive). The GI50 (NCI-H23) was > 100 µM (inactive), the GI50 (KM12) was > 100 µM (inactive) and the GI50 (NCI-H522) was 73.1 µM (inactive). The GI50 (RPMI-8226) was > 100 µM (inactive), the GI50 (MOLT-4) was 11.8 µM (inactive) and the GI50 (MDA-N) was > 100 µM (inactive). The GI50 (HCC 2998) was > 100 µM (inactive), the GI50 (UACC-62) was > 100 µM (inactive) and the GI50 (A498) was > 100 µM (inactive). The GI50 (SN12C) was > 100 µM (inactive), the GI50 (TK-10) was > 100 µM (inactive) and the GI50 (UACC-257) was 70 µM (inactive). The GI50 (HCT-116) was 62.8 µM (inactive), the GI50 (SK-MEL-5) was 36.1 µM (inactive) and the GI50 (ACHN) was > 100 µM (inactive). The GI50 (NCI/ADR-RES) was > 100 µM (inactive), the GI50 (LOX IMVI) was > 100 µM (inactive) and the GI50 (CAKI-1) was 57.8 µM (inactive). The GI50 (IGROV-1) was > 100 µM (inactive), the GI50 (Hs-578T) was > 100 µM (inactive) and the GI50 (MCF7) was 11.4 µM (inactive). For the same compound, the GI50 (SK-MEL-28) was > 100 µM (inactive), the GI50 (HOP-62) was > 100 µM (inactive) and the GI50 (PC-3) was 86.1 µM (inactive). The GI50 (OVCAR-4) was > 100 µM (inactive), the GI50 (UO-31) was 89.7 µM (inactive) and the GI50 (EKVX) was 97.7 µM (inactive). The GI50 (Malme-3M) was > 100 µM (inactive), the GI50 (T47D) was 3.05 µM (inactive) and the GI50 (SF-539) was > 100 µM (inactive). For the same compound, the GI50 (OVCAR-5) was > 100 µM (inactive), the GI50 (COLO 205) was > 100 µM (inactive) and the GI50 (CCRF-CEM) was 79.8 µM (inactive). For the same compound, the GI50 (SW-620) was > 100 µM (inactive), the GI50 (SK-OV-3) was > 100 µM (inactive) and the GI50 (K562) was 52.7 µM (inactive). For the same compound, the GI50 (HT-29) was > 100 µM (inactive), the GI50 (SR) was 18.8 µM (inactive) and the GI50 (OVCAR-3) was > 100 µM (inactive). For the same compound, the GI50 (NCI-H226) was > 100 µM (inactive), the GI50 (SF-268) was > 100 µM (inactive) and the GI50 (SK-MEL-2) was > 100 µM (inactive). For the same compound, the GI50 (SNB-75) was 40.8 µM (inactive), the GI50 (HCT-15) was > 100 µM and the GI50 (MDA-MB-231) was > 100 µM (inactive). For the same compound, the GI50 (786-0) was > 100 µM (inactive).
